Reference: the NIST ThermoML archive (doi:10.1021/je900730w)
Numbers after ± are expanded uncertainties.

Columns and labels:
[1] = refractive index (Na D-line) (dimensionless); details: 293.15 K; 101.33 kPa; Liquid; Standard Abbe refractometry
[2] = for mass density: 293.15 K, 101.33 kPa, Liquid
[3] = Molar enthalpy of transition or fusion; details: Crystal; DSC

Cc1ccccc1 [toluene] gave a refractive index [1] of 1.4967 ± 0.0007 and a mass density ([2]; Vibrating tube method) of 866 ± 1 kg/m3.
For CO [methanol], the refractive index [1] was 1.3301 ± 0.0007 and the mass density [2] was 792 ± 1 kg/m3.
For CC(C)=O [acetone], the refractive index [1] was 1.359 ± 0.0007 and the mass density ([2]; Vibrating tube method) was 790 ± 1 kg/m3.
With O=P(c1ccccc1)(c1ccccc1)c1cc(O)ccc1O [(2,5-dihydroxyphenyl)diphenyl phosphine oxide] the “Molar enthalpy of transition or fusion” value [3] was 8.91 ± 0.239 kcal/mol and the Normal melting temperature ([2]; Crystal, DTA) was 214.60 ± 0.5 °C.
Work on CCO [ethanol] yielded a refractive index [1] of 1.366 ± 0.0007 and a mass density ([2]; Vibrating tube method) of 790 ± 1 kg/m3.
CCOCCO [2-ethoxyethan-1-ol] showed a refractive index [1] of 1.4065 ± 0.0007 and a mass density ([2]; Vibrating tube method) of 929 ± 1 kg/m3.
